# Test results taken from US10065990B2, “Cyclic peptide compound, and preparation method, pharmaceutical composition and use thereof” (HANGZHOU GUANYU BIO-MEDICAL CO., LTD, priority 2013, dated 2018).
# Where two headings read alike, the source gives them in different places.
# Columns and labels:
# [1] = system: Bel-7402 (human hepatoma cells); assay: MTT cancer cell growth inhibition; format: cell-based; conditions: Homo sapiens, Bel-7402, 72 h, MTT, 72 hours incubation, Bel-7402 cells; read-out: GI50 Bel-7402
# Method in brief: (§1)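 Following overnight attachment of 1500 cells per well, each line was exposed to test drug (final 10^−5 to 10^−10 M) for 72 h in a humidified 37° C., 5% CO2 incubator. Four hours with MTT, DMSO dissolution of formazan, and a 570 nm reading yielded viability data used for GI50.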
# [2] = system: HT1080 (human fibrosarcoma cells); assay: MTT cancer cell growth inhibition; format: cell-based; conditions: Homo sapiens, HT-1080, 72 h, MTT
# Method in brief: as §1
# [3] = system: H1975 (non-small cell lung adenocarcinoma); assay: MTT cancer cell growth inhibition; format: cell-based; conditions: Homo sapiens, NCI-H1975, 72 h, MTT, 72 hours incubation, H1975 cells; read-out: GI50 H1975
# Method in brief: as §1
# [4] = system: HCC827 (human non-small cell lung cancer cells); assay: MTT cancer cell growth inhibition; format: cell-based; conditions: Homo sapiens, HCC827, 72 h, MTT, 72 hours incubation, HCC827 cells; read-out: GI50 HCC827
# Method in brief: as §1
# [5] = system: DU145 (human prostate cancer cells); assay: MTT cancer cell growth inhibition; format: cell-based; conditions: MTT
# Method in brief: as §1
# [6] = system: KBM-5 (human chronic myelogenous leukemia); assay: MTT cancer cell growth inhibition; format: cell-based; conditions: Homo sapiens, KBM5, 72 h, MTT, 72 hours incubation, KBM-5 cells; read-out: GI50 KBM-5
# Method in brief: as §1
# [7] = system: Hela (human cervical cancer cells); assay: MTT cancer cell growth inhibition; format: cell-based; conditions: Homo sapiens, HeLa, 72 h, MTT
# Method in brief: as §1
# [8] = system: K562 (human leukemia cells); assay: MTT cancer cell growth inhibition; format: cell-based; conditions: MTT, 72 hours incubation, K562 cells, read-out: GI50 K562
# Method in brief: as §1
# [9] = system: N-87 (human gastric cancer cells); assay: MTT cancer cell growth inhibition; format: cell-based; conditions: Homo sapiens, 72 h, MTT, 72 hours incubation, N-87 cells; read-out: GI50 N-87
# Method in brief: as §1
# [10] = system: U937 (human leukemia cells); assay: MTT cancer cell growth inhibition; format: cell-based; conditions: Homo sapiens, U-937, 72 h, MTT
# Method in brief: as §1
# [11] = system: BGC-823 (human gastric cancer cells); assay: MTT cancer cell growth inhibition; format: cell-based; conditions: MTT
# Method in brief: as §1
# HDAC3 = HDAC3 (Homo sapiens, UniProt O15379); assay: HDAC biochemical activity measurement (fluorescent substrate deacetylation);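 note: fluorogenic acetyl-lysine substrate (20 µM) deacetylated by HDAC3, then developer added for 15 min at room temperature, release of fluorophore read at excitation 360 nm, emission 460 nm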
# HDAC8 = biological target: T1, HDAC8 (Homo sapiens, UniProt Q9BY41); assay: as above; conditions: 37° C. 30 minutes
# T1 sequence (Q9BY41 1-377): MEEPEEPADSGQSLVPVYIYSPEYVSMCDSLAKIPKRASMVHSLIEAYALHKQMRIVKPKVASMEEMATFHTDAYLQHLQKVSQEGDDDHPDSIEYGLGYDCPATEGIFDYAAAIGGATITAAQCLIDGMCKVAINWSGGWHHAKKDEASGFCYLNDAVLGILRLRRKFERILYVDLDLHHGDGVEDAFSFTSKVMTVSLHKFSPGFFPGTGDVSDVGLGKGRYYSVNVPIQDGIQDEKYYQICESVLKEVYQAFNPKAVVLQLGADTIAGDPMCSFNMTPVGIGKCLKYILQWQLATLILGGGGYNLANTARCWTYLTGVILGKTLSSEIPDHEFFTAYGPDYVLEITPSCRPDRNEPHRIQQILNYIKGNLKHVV
# [12] = 72 hours incubation, read-out: GI50 HT1
# [13] = 72 hours, present invention, read-out: GI50 HT1080, a
# [14] = Homo sapiens, DU-145, 72 h, 72 hours, present invention, read-out: GI50 Du145, a
# [15] = 72 hours incubation, read-out: GI50 Hela
# [16] = 72 hours, present invention, read-out: GI50 Hela, a
# [17] = 72 hours, present invention, read-out: GI50 U937, a
# [18] = Homo sapiens, BGC-823, 72 h, 72 hours, present invention, read-out: GI50 BGC823, a
# [19] = read-out: IC50 HDAC3, HDAC3, 37° C. 30 minutes
# [20] = Homo sapiens, BGC-823, 72 h, 72 hours incubation, read-out: GI50 BG
# [21] = Homo sapiens, DU-145, 72 h, 72 hours incubation, read-out: GI50 Du1
# [22] = 72 hours incubation, read-out: GI50 U93
# [23] = HT1080 cells, 72 hours incubation, read-out: GI50 HT1
# [24] = Hela cells, 72 hours incubation, read-out: GI50 Hela
# [25] = U937 cells, 72 hours incubation, read-out: GI50 U93
# [26] = Homo sapiens, BGC-823, 72 h, BGC-823 cells, 72 hours incubation, read-out: GI50 BG
# Sequence of HDAC3 (O15379 whole entry, species assumed): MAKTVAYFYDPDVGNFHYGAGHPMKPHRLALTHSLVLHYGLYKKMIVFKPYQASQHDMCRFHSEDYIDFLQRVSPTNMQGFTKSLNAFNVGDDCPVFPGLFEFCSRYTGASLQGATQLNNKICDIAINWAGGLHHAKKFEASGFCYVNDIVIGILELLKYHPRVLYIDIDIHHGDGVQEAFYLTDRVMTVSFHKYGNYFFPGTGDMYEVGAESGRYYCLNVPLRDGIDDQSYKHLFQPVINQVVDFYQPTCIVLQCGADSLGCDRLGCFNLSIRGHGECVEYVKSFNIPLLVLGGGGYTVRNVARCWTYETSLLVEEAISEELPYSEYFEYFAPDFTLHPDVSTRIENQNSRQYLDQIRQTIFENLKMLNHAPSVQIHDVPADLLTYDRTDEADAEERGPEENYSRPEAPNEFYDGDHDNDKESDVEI
# Sequence of HDAC3 (Q9Y618 395-489 partner limits assumed, species assumed): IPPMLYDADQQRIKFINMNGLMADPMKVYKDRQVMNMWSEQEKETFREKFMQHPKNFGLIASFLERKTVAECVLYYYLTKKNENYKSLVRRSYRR
SMILES,GI50 [1],"GI50 [2, 12]",GI50 [3],GI50 [4],"GI50 [5, 14]",GI50 [6],"GI50 [7, 15]","GI50 [7, 16]","GI50 ([8]; Homo sapiens, K562, 72 h)",GI50 [9],"GI50 [10, 17]","GI50 [11, 18]",IC50 (HDAC3; [19]),IC50 (HDAC8),"GI50 [11, 20]","GI50 [5, 21]","GI50 [10, 22]",IC50 (HDAC3),also measured
C/C=C1\NC(=O)c2cccc(n2)CNC(=O)C[C@@H](/C=C/CCSC(=O)CCCCCCC)OC(=O)[C@H](CC)NC1=O [Compound 9],83 nM,40 nM,26 nM,53 nM,2 nM,44 nM,50 nM,50 nM,83 nM,35 nM,1 nM,7 nM,34 nM,49 nM,–,–,–,–,"GI50 [2, 13]: 40 nM"
C/C=C1\NC(=O)c2cccc(n2)CNC(=O)C[C@@H](/C=C/CCSC(=O)CCCCCCC)OC(=O)[C@H](C(C)C)NC1=O [Compound 1],29 nM,10 nM,122 nM,179 nM,4 nM,37 nM,20 nM,20 nM,78 nM,18 nM,5 nM,60 nM,35 nM,30 nM,60 nM,–,–,–,–
C/C=C1\NC(=O)c2cccc(n2)CNC(=O)C[C@@H](/C=C/CCSC(C)=O)OC(=O)[C@H](Cc2ccccc2)NC1=O [Compound 13],85 nM,200 nM,53 nM,29 nM,–,84 nM,90 nM,–,25 nM,31 nM,–,–,337 nM,159 nM,100 nM,20 nM,80 nM,–,–
C/C=C1\NC(=O)c2cccc(n2)CNC(=O)C[C@@H](/C=C/CCSC(C)=O)OC(=O)[C@H](Cc2ccc(O)cc2)NC1=O [Compound 18],95 nM,10800 nM,53 nM,59 nM,–,54 nM,370 nM,–,35 nM,44 nM,–,–,67 nM,73 nM,53100 nM,420 nM,11300 nM,–,–
CC(=O)SCC/C=C/[C@@H]1CC(=O)NCc2cccc(n2)C(=O)NC(=C(C)C)C(=O)N[C@@H](C(C)C)C(=O)O1 [Compound 20],86 nM,980 nM,35 nM,52 nM,–,61 nM,10 nM,–,24 nM,62 nM,–,–,45 nM,65 nM,1100 nM,1980 nM,20200 nM,–,–
C/C=C1\NC(=O)c2cc(F)cc(n2)CNC(=O)C[C@@H](/C=C/CCSC(C)=O)OC(=O)[C@H](C(C)C)NC1=O [Compound 94],84 nM,80 nM,34 nM,84 nM,–,61 nM,60 nM,–,–,37 nM,–,–,–,28 nM,–,–,30 nM,28 nM,"GI50 ([5]; 72 hours incubation, read-out: GI50 Du1): 30 nM; GI50 [8]: 39 nM; GI50 ([11]; 72 hours incubation, read-out: GI50 BG): 30 nM"

# Further lines, with some results ahead:
GI50 [1],"GI50 [2, 12]",GI50 [3],GI50 [4],"GI50 [5, 14]",GI50 [6],"GI50 [7, 15]","GI50 [7, 16]","GI50 ([8]; Homo sapiens, K562, 72 h)",GI50 [9],"GI50 [10, 17]","GI50 [11, 18]",IC50 (HDAC3; [19]),IC50 (HDAC8),"GI50 [11, 20]","GI50 [5, 21]","GI50 [10, 22]",IC50 (HDAC3),SMILES,also measured
57 nM,50 nM,42 nM,57 nM,–,74 nM,70 nM,–,27 nM,63 nM,–,–,–,53 nM,60 nM,20 nM,40 nM,16 nM,C/C=C1\NC(=O)c2nc(ccc2F)CNC(=O)C[C@@H](/C=C/CCSC(=O)CCCCCCC)OC(=O)[C@H](C)NC1=O [Example 60],–
43 nM,40 nM,29 nM,43 nM,–,37 nM,30 nM,–,39 nM,37 nM,–,–,–,435 nM,30 nM,30 nM,20 nM,231 nM,C/C=C1\NC(=O)c2ccc(F)c(n2)CNC(=O)C[C@@H](/C=C/CCSC(C)=O)OC(=O)[C@H](CCCCN)NC1=O [Example 74],–
79 nM,–,56 nM,66 nM,4 nM,71 nM,–,18 nM,47 nM,96 nM,12 nM,110 nM,–,52 nM,–,–,–,53 nM,C/C=C1\NC(=O)c2cccc(n2)CNC(=O)C[C@@H](/C=C/CCSC(=O)CCCCCCC)OC(=O)[C@H](CCSC)NC1=O [Compound 240],"GI50 [2, 23]: 10 nM; GI50 [2, 13]: 33 nM; GI50 [7, 24]: 70 nM; GI50 [10, 25]: 30 nM; GI50 [11, 26]: 190 nM"
65 nM,–,54 nM,25 nM,–,61 nM,–,–,71 nM,73 nM,–,–,–,42 nM,–,–,–,34 nM,C/C=C1\NC(=O)c2ccc(SC)c(n2)CNC(=O)C[C@@H](/C=C/CCSC(C)=O)OC(=O)[C@H](CC)NC1=O [Compound 179],"GI50 [2, 23]: 40 nM; GI50 ([5]; Homo sapiens, DU-145, 72 h, DU145 cells, 72 hours incubation, read-out: GI50 Du1): 30 nM; GI50 [7, 24]: 30 nM; GI50 [10, 25]: 50 nM; GI50 [11, 26]: 30 nM"
